Measured values as given in patent US20260294905A1, “USE OF PLURALITY OF COMPOUNDS IN PREPARATION OF DRUG FOR TREATING MYELOPROLIFERATIVE NEOPLASMS” (THE SECOND XIANGYA HOSPITAL OF CENTRAL SOUTH UNIVERSITY, priority 2022, published 2026).
Values joined by “and” are separate entries in the source; they are usually repeats but may differ in a detail not shown here. Equal values may be shown once. “Also recorded” adds a separate entry of the source. Values belong to the compound of their own block, whether it stands above or below them.

Legend:
[1] = tested on: preclinical model including melanoma; conditions: cited from earlier work
[2] = tested on: HEL cells (human erythroleukemia cell line); assay: Annexin V-PI staining and flow cytometry, apoptosis of HEL cells, 24 h; assay type: cell-based; conditions: for promotion of apoptosis of HEL cells (in words): 0.1-10 μM
Protocol: • 1. the cell lines and inhibitors were the same as those in Example 1. • 2. detection of cell apoptosis
(§1) To detect the apoptosis-promoting effect of the inhibitors, HEL naïve cell strains were treated with Ruxolitinib and the compounds for 24 hours respectively (with concentrations of: 0, 0.1, 0.5, 1 μM or 0, 0.1, 0.3, 1, 3, 10 μM), and added with DMSO to make up to the same amount. 3 parallel replicate groups were set up, and cell apoptosis was detected by Annexin V and PI staining followed by flow cytometry.
(§2) A calculation formula of cell apoptosis rate was: cell apoptosis rate=the ratio of early apoptotic cells (Annexin V^+/PI^−)+the ratio of late apoptotic cells and necrotic cells (Annexin V^+/PI^+).

[3] = orally once a week, RP2D 420 mg/m^2 (not exceeding 600 mg); cited from earlier work
[4] = tested on: HEL^RE cells (Ruxolitinib-resistant HEL); assay: CellTiter-Lumi luminescence proliferation of Ruxolitinib-resistant HEL^RE cells, 48 h; assay type: cell-based, human; conditions: for inhibition of proliferation of HEL^RE cells (in words): 0.1-10 μM; for activity at 0.1 µM / activity at 0.3 µM / activity at 1 µM / activity at 3 µM / activity at 10 µM: vs DMSO control, read-out: average proliferation rate of HEL^RE cells
Text: (§3) HELs (Human erythroleukemia cell lines) and Ruxolitinib-resistant HEL cells were both cultured in a RPMI medium (Gibco) containing 20% heat-inactivated fetal bovine serum (Gibco) and 1% penicillin/streptomycin.
A Ruxolitinib-resistant HEL model, i.e., a HEL^RE model, was constructed by starting the addition of Ruxolitinib at a concentration lower than the IC50 of naïve cells and slowly incrementing the concentration to a high concentration, and preventing the cells from being killed. Our starting concentration was 0.1 μM. The drug was added upon occurrence of cell proliferation. The drug addition gradient was an increment at a multiple of 1.25, and the final concentration was 2.0 μM. Stable drug-resistant cells were obtained after 4-6 weeks.
(§4) Ruxolitinib and other compounds were all purchased from Selleck, dissolved in DMSO with a stock solution concentration of 10 mM, and cryopreserved at −80° C. The working solution was diluted to a specified multiple using a RPMI medium and then used for treating cells. Ruxolitinib was specifically ruxolitinib phosphate.
(§5) To detect the antiproliferative effect of the inhibitor, the aforementioned cell lines were cultured at 3,000 cells/100 μL of the system per well, added with increasing concentrations of Ruxolitinib (concentration gradients of HEL cells: 0, 0.1, 1, 2.5, 5 μM; or 0, 0.1, 0.3, 1, 3, 10 μM), and added with DMSO to make up to the same amount. 4 parallel replicate groups were set up, and 3 blank wells (wells containing culture media without cells) were set up.
(§6) A calculation formula of the cell proliferation rate was: cell proliferation rate=(Luminescence value of the group added with the drug-average Luminescence value of the blank wells)/(Luminescence value of the DMSO control group-average Luminescence value of the blank wells)×100%.
A method for evaluating whether the model was successfully constructed was to compare the IC50s of resistant cells and naïve cells.
(§7) In order to detect the effects of five compounds on the proliferation abilities of drug-resistant myeloproliferative neoplasm cells, the method was to treat HEL^RE with increasing concentrations of Ruxolitinib and the five compounds respectively, and to detect the proliferation of the cells by a CellTiter-Lumi™ luminescence method.

[5] = tested on: HEL cells (human erythroleukemia cell line); assay: CellTiter-Lumi luminescence proliferation of naive HEL cells, 48 h; assay type: cell-based; conditions: for inhibition of proliferation of HEL cells (in words): 0.1-10 μM; for activity at 0.1 µM / activity at 0.3 µM / activity at 1 µM / activity at 3 µM / activity at 10 µM: vs DMSO control, read-out: average proliferation rate of HEL cells
Protocol: as §3, §4, §5, §6
as §7, with “the” for “five”, “the HEL naïve cell lines” for “HEL^RE”, “the” for “the five”

[6] = tested on: HEL^RE cells (Ruxolitinib-resistant HEL); assay: Annexin V-PI staining and flow cytometry, apoptosis of HEL^RE cells; assay type: cell-based, human; conditions: for average apoptosis rate of HEL-RE cells: 24 h; for promotion of apoptosis of HEL^RE cells (in words): 0.1-10 μM
Protocol: as §1, §2
In order to detect the effects of compounds on the abilities of drug-resistant myeloproliferative neoplasm cells, the method was to treat HEL^RE with increasing concentrations of Ruxolitinib and the compounds, and to detect cell apoptosis by Annexin V and PI staining followed by flow cytometry.

[7] = tested on: progressive or metastatic solid tumors; conditions: RP2D 2.7 mg, cited from earlier work
[8] = tested on: myeloproliferative neoplasms patients; conditions: cited from earlier work
[9] = Homo sapiens, HEL^RE cells, 48 h

SMILES: C[C@@H](NC(=O)c1ncnc(N)c1Cl)c1ncc(C(=O)Nc2cc(C(F)(F)F)c(Cl)cn2)s1 [MLN2480]
anti-tumor activity [1]: good anti-tumor activity
average apoptosis rate of HEL cells ([2]; 0.1 μM): 4.61±2.768% and 4.61%
average apoptosis rate of HEL cells ([2]; 0.3 μM): 3.85±0.101% and 3.85%
average apoptosis rate of HEL cells ([2]; 1 μM): 5.53±1.22% and 5.53%
average apoptosis rate of HEL cells ([2]; 3 μM): 10.04±2.663% and 10.04%
average apoptosis rate of HEL cells ([2]; 10 μM): 8.8±1.063% and 8.8%
promotion of apoptosis of HEL cells (in words) [2]: could not promote the apoptosis of myeloproliferative neoplasm cells
safety [3]: good safety and low toxic and side effects
inhibition of proliferation of HEL^RE cells (in words) ([4]; HEL^RE cells): could inhibit the proliferation of drug-resistant myeloproliferative neoplasm cells, and this effect was increased with the increase of the drug concentration
overall effectiveness among the compounds ([4]; HEL^RE cells, proliferation and apoptosis taken together): more effective
activity at 0.1 µM [4, 9]: 103 ± 8.58%
activity at 0.3 µM [4, 9]: 75.1 ± 3.54%
activity at 1 µM [4, 9]: 46.5 ± 9.45%
activity at 3 µM [4, 9]: 18.9 ± 4.22%
activity at 10 µM [4, 9]: 10.3 ± 0.49%
inhibition of proliferation of HEL cells (in words) [5]: could not inhibit the proliferation of the HEL cells
activity at 0.1 µM ([5]; Homo sapiens, 48 h): 98.5 ± 2.62%
activity at 0.3 µM ([5]; Homo sapiens, 48 h): 97.9 ± 3.55%
activity at 1 µM ([5]; Homo sapiens, 48 h): 97.3 ± 0.78%
activity at 3 µM ([5]; Homo sapiens, 48 h): 98.3 ± 0.65%
activity at 10 µM ([5]; Homo sapiens, 48 h): 97.6 ± 3.47%
average apoptosis rate of HEL-RE cells ([6]; 0.1 μM): 6.54±0.560% and 6.54%
average apoptosis rate of HEL-RE cells ([6]; 0.3 μM): 7.80±0.900% and 7.80%
average apoptosis rate of HEL-RE cells ([6]; 1 μM): 10.9±0.390% and 10.9%
average apoptosis rate of HEL-RE cells ([6]; 3 μM): 15.5±0.580% and 15.5%
average apoptosis rate of HEL-RE cells ([6]; 10 μM): 13.8±0.775% and 13.8%
promotion of apoptosis of HEL^RE cells (in words) [6]: could promote apoptosis of Ruxolitinib-resistant myeloproliferative neoplasm cells, and this effect was increased with the increase of the drug concentration; also recorded: can promote the apoptosis of the HEL^RE cells

SMILES: CNS(=O)(=O)Nc1nccc(Cc2c(C)c3ccc(Oc4ncccn4)cc3oc2=O)c1F [RO5126766]
average apoptosis rate of HEL cells ([2]; 0.1 μM): 6.00±0.290% and 6.00%
average apoptosis rate of HEL cells ([2]; 0.3 μM): 6.96±1.16% and 6.96%
average apoptosis rate of HEL cells ([2]; 1 μM): 6.11±0.640% and 6.11%
average apoptosis rate of HEL cells ([2]; 3 μM): 8.32±2.69% and 8.32%
average apoptosis rate of HEL cells ([2]; 10 μM): 6.73±1.20% and 6.73%
promotion of apoptosis of HEL cells (in words) [2]: could not promote apoptosis of the HEL cells
anti-tumor activity ([7]; 4 consecutive days a week for 4 weeks): good anti-tumor activity
side effects [7]: tolerable side effects
inhibition of proliferation of HEL^RE cells (in words) ([4]; HEL^RE cells): could inhibit the proliferation of the HEL^RE cells, and this effect increased with increase in the drug concentration
activity at 0.1 µM [4, 9]: 48.1 ± 3.37%
activity at 0.3 µM [4, 9]: 41.4 ± 3.16%
activity at 1 µM [4, 9]: 35.2 ± 2.89%
activity at 3 µM [4, 9]: 31.5 ± 1.9%
activity at 10 µM [4, 9]: 27.7 ± 2.34%
inhibition of proliferation of HEL cells (in words) [5]: can successfully inhibit the proliferation of the HEL cells; also recorded: could inhibit the proliferation of the HEL cells, and this effect increased with increase in the drug concentration
activity at 0.1 µM ([5]; Homo sapiens, 48 h): 85.8 ± 2.75%
activity at 0.3 µM ([5]; Homo sapiens, 48 h): 89 ± 13.5%
activity at 1 µM ([5]; Homo sapiens, 48 h): 83.4 ± 3.31%
activity at 3 µM ([5]; Homo sapiens, 48 h): 61.6 ± 3.79%
activity at 10 µM ([5]; Homo sapiens, 48 h): 47.1 ± 5.47%
average apoptosis rate of HEL-RE cells ([6]; 0.1 μM): 6.25±0.920% and 6.25%
average apoptosis rate of HEL-RE cells ([6]; 0.3 μM): 5.88±1.25% and 5.88%
average apoptosis rate of HEL-RE cells ([6]; 1 μM): 7.32±1.74% and 7.32%
average apoptosis rate of HEL-RE cells ([6]; 3 μM): 4.71±0.350% and 4.71%
average apoptosis rate of HEL-RE cells ([6]; 10 μM): 5.42±0.830% and 5.42%
promotion of apoptosis of HEL^RE cells (in words) [6]: could not promote apoptosis of the HEL^RE cells

IC50 ([5]; Homo sapiens, 48 h, mean (95% confidence interval)): 2.31 µM
SMILES: N#CC[C@H](C1CCCC1)n1cc(-c2ncnc3[nH]ccc23)cn1 [Ruxolitinib]
average apoptosis rate of HEL cells ([2]; 0.1 μM): 7.40±0.059% and 7.40%
average apoptosis rate of HEL cells ([2]; 0.3 μM): 7.46±0.679% and 7.46%
average apoptosis rate of HEL cells ([2]; 1 μM): 8.61±0.403% and 8.61%
average apoptosis rate of HEL cells ([2]; 3 μM): 7.19±0.209% and 7.19%
average apoptosis rate of HEL cells ([2]; 10 μM): 6.36±0.036% and 6.36%
patients developing drug resistance ([8]; MF patients treated for 1 year, type I JAK inhibitors such as RUX): more than 40%
effect on symptoms, clonal hematopoiesis, mutant gene load ([8]; clinical use): cannot reduce the load of mutant genes
side effects / safety in patients ([8]; clinical use): more severe anemia; also recorded: bone marrow suppression as a common side effect
spleen volume and symptoms ([8]; intermediate- and high-risk MF and PV, Phase II and III trials, vs optimal therapy): can reduce the spleen volume and alleviate symptoms
drug resistance index (ratio of IC50s of resistant and naive cells) ([4]; HEL^RE vs HEL cells, 2880 min): 19.0
activity at 0.1 µM [4, 9]: 105 ± 2.08%
activity at 0.3 µM [4, 9]: 105 ± 3.59%
activity at 1 µM [4, 9]: 104 ± 9.46%
activity at 3 µM [4, 9]: 109 ± 4.39%
activity at 10 µM [4, 9]: 96 ± 3.69%
IC50 ([4]; Homo sapiens, HEL^RE cells, 48 h, mean (95% confidence interval)): 44.7 µM
activity at 0.1 µM ([5]; Homo sapiens, 48 h): 80.9 ± 1.35%
activity at 0.3 µM ([5]; Homo sapiens, 48 h): 54.9 ± 4.35%
activity at 1 µM ([5]; Homo sapiens, 48 h): 42.7 ± 4.05%
activity at 3 µM ([5]; Homo sapiens, 48 h): 34.7 ± 1.14%
activity at 10 µM ([5]; Homo sapiens, 48 h): 29.4 ± 0.49%
average apoptosis rate of HEL-RE cells ([6]; 0.1 μM): 12.4±0.540% and 12.4%
average apoptosis rate of HEL-RE cells ([6]; 0.3 μM): 13.0±1.03% and 13.0%
average apoptosis rate of HEL-RE cells ([6]; 1 μM): 10.8±1.02% and 10.8%
average apoptosis rate of HEL-RE cells ([6]; 3 μM): 10.2±0.880% and 10.2%
average apoptosis rate of HEL-RE cells ([6]; 10 μM): 10.6±1.33% and 10.6%
